What was measured:
NCI-H2228 [1] = experiment: Antitumor activity against ALK positive human NCI-H2228 cells xenografted in CB-17/SCID orthotopic brain tumor mouse model assessed as median survival time at 25 mg/kg po administered daily and measured after 64 days (reference value: 28 days); format: functional; conditions: time 64 day
[2] = target: Serine/threonine-protein kinase TAO3 (Homo sapiens) (UniProt Q9H2K8); experiment: Inhibition of human TAOK3 at 1 uM using MBP as substrate in presence of [gamma33P]-ATP by HotSpot assay relative to control
[3] = target: [Pyruvate dehydrogenase (acetyl-transferring)] kinase isozyme 1, mitochondrial (Homo sapiens) (UniProt Q15118); experiment: Inhibition of human PDK1 at 1 uM using MBP as substrate in presence of [gamma33P]-ATP by HotSpot assay relative to control
[4] = target: Serine/threonine-protein kinase Nek1 (Homo sapiens) (UniProt Q96PY6); experiment: Inhibition of human NEK1 at 1 uM using MBP as substrate in presence of [gamma33P]-ATP by HotSpot assay relative to control
[5] = target: Tyrosine-protein kinase JAK2 (Homo sapiens, UniProt O60674); experiment: Inhibition of human JAK2 using poly (Glu, Tyr)4:1 as substrate in presence of [gamma33P]-ATP by HotSpot assay
[6] = target: Mitogen-activated protein kinase kinase kinase kinase 2 (Homo sapiens) (UniProt Q12851); experiment: Inhibition of human GCK at 1 uM using MBP as substrate in presence of [gamma33P]-ATP by HotSpot assay relative to control
[7] = target: Lymphokine-activated killer T-cell-originated protein kinase (Homo sapiens) (UniProt Q96KB5); experiment: Inhibition of human PBK at 1 uM using MBP as substrate in presence of [gamma33P]-ATP by HotSpot assay relative to control
NCI-H2228 [8] = experiment: Antitumor activity against ALK positive human NCI-H2228 cells xenografted in CB-17/SCID orthotopic brain tumor mouse model assessed as median survival time at 50 mg/kg po administered daily and measured after 64 days (reference value: 28 days); format: functional; conditions: time 64 day
[9] = target: Serine/threonine-protein kinase PLK1 (Homo sapiens, UniProt P53350); experiment: Inhibition of human PLK1 using casein as substrate in presence of [gamma33P]-ATP by HotSpot assay
[10] = target: Proto-oncogene tyrosine-protein kinase receptor Ret (Homo sapiens, UniProt P07949, V804M); experiment: Inhibition of human RET V804M mutant using RRRRRRRRRRRVYSTDYYRLFNPS as substrate in presence of [gamma33P]-ATP by HotSpot assay
[11] = target: Platelet-derived growth factor receptor alpha (Homo sapiens) (UniProt P16234); experiment: Inhibition of human PDGFRalpha at 1 uM using poly (Glu, Tyr)4:1 as substrate in presence of [gamma33P]-ATP by HotSpot assay relative to control
BaF3 = conditions: dose 50 mg/kg; route po; time 8 day
[12] = target: Protein kinase C beta type (Homo sapiens) (UniProt P05771); experiment: Inhibition of human PRKCB at 1 uM using ERMRPRKRQGSVRRRV as substrate in presence of [gamma33P]-ATP by HotSpot assay relative to control
[13] = target: Calcium/calmodulin-dependent protein kinase type IV (Homo sapiens) (UniProt Q16566); experiment: Inhibition of human CAMK4 at 1 uM using KKLNRTLSFAEPG as substrate in presence of [gamma33P]-ATP by HotSpot assay relative to control
[14] = target: Protein kinase C beta type (Homo sapiens) (UniProt P05771); experiment: Inhibition of human PKCb2 at 1 uM using ERMRPRKRQGSVRRRV as substrate in presence of [gamma33P]-ATP by HotSpot assay relative to control
[15] = target: Tyrosine-protein kinase CSK (Homo sapiens, UniProt P41240); experiment: Inhibition of human CSK using poly (Glu, Tyr)4:1 as substrate in presence of [gamma33P]-ATP by HotSpot assay
[16] = target: Calcium/calmodulin-dependent protein kinase type II subunit alpha (Homo sapiens) (UniProt Q9UQM7); experiment: Inhibition of human CAMK2A at 1 uM using KKALRRQETVDAL as substrate in presence of [gamma33P]-ATP by HotSpot assay relative to control
[17] = target: MAP kinase-interacting serine/threonine-protein kinase 1 (Homo sapiens, UniProt Q9BUB5, T385D); experiment: Inhibition of human MNK1 T385D mutant using MBP as substrate in presence of [gamma33P]-ATP by HotSpot assay
[18] = test system: EML4-ALK (Homo sapiens), Q9UM73+Q9HC35 [E1210K]; conditions: BaF3, time 3-5 weeks
[19] = test system: EML4-ALK (Homo sapiens), Q9UM73+Q9HC35 [L1152R]; conditions: BaF3, time 3-5 weeks
cells = conditions: Homo sapiens, BaF3, 72 h
[20] = target: Tyrosine-protein kinase Lyn (Homo sapiens, UniProt P07948); experiment: Inhibition of human LYNB at 1 uM using poly (Glu, Tyr)4:1 as substrate in presence of [gamma33P]-ATP by HotSpot assay relative to control
[21] = test system: Epidermal growth factor receptor (Homo sapiens), P00533 [UNDEFINED MUTATION]; conditions: BaF3, time 72.0 hrs
KARPAS-299 = experiment: Antitumor activity against ALK positive human KARPAS-299 cells xenografted in SCID beige mouse assessed as inhibition of tumor growth administered orally once daily for 14 days; format: functional, cell-based; conditions: dose 10-50 mg/kg, route po, time 14.0 day
[22] = target: Protein kinase C gamma type (Homo sapiens) (UniProt P05129); experiment: Inhibition of human PKCG at 1 uM using ERMRPRKRQGSVRRRV as substrate in presence of [gamma33P]-ATP by HotSpot assay relative to control
[23] = target: Wee1-like protein kinase (Homo sapiens) (UniProt P30291); experiment: Inhibition of human WEE1 at 1 uM using CDK1 (D146N)/cyclin B1 as substrate in presence of [gamma33P]-ATP by HotSpot assay relative to control
[24] = target: Serine/threonine-protein kinase PLK3 (Homo sapiens) (UniProt Q9H4B4); experiment: Inhibition of human PLK3 at 1 uM using casein as substrate in presence of [gamma33P]-ATP by HotSpot assay relative to control
[25] = target: Mitogen-activated protein kinase 9 (Homo sapiens) (UniProt P45984); experiment: Inhibition of human JNK2a2 at 1 uM using ATF2 as substrate in presence of [gamma33P]-ATP by HotSpot assay relative to control
[26] = target: Cyclin-dependent kinase 4/cyclin D1 (Homo sapiens) (UniProt P11802+P24385); experiment: Inhibition of human CDK4/CyclinD1 at 1 uM using RB protein as substrate in presence of [gamma33P]-ATP by HotSpot assay relative to control; format: protein-complex assay

Chain of Protein kinase C beta type (Homo sapiens) (P05771 2-671 limits assumed): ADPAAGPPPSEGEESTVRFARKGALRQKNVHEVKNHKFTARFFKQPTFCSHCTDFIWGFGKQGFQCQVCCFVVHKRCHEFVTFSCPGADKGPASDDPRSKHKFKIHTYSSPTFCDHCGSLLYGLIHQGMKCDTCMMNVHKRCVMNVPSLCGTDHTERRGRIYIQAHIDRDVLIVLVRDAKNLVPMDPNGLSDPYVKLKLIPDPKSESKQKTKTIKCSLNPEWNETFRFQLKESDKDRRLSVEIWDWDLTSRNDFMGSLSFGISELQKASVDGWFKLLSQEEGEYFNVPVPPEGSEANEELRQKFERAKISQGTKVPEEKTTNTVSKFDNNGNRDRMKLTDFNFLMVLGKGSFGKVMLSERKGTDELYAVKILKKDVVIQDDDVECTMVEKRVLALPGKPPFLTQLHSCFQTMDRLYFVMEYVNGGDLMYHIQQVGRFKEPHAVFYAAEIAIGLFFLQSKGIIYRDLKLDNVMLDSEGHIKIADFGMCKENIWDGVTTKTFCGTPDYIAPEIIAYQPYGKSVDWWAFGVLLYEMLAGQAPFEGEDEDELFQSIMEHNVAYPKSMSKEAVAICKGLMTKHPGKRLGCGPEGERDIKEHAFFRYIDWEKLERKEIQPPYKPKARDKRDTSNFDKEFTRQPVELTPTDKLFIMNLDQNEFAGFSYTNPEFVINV
Chain of Tyrosine-protein kinase JAK2 (O60674 whole entry): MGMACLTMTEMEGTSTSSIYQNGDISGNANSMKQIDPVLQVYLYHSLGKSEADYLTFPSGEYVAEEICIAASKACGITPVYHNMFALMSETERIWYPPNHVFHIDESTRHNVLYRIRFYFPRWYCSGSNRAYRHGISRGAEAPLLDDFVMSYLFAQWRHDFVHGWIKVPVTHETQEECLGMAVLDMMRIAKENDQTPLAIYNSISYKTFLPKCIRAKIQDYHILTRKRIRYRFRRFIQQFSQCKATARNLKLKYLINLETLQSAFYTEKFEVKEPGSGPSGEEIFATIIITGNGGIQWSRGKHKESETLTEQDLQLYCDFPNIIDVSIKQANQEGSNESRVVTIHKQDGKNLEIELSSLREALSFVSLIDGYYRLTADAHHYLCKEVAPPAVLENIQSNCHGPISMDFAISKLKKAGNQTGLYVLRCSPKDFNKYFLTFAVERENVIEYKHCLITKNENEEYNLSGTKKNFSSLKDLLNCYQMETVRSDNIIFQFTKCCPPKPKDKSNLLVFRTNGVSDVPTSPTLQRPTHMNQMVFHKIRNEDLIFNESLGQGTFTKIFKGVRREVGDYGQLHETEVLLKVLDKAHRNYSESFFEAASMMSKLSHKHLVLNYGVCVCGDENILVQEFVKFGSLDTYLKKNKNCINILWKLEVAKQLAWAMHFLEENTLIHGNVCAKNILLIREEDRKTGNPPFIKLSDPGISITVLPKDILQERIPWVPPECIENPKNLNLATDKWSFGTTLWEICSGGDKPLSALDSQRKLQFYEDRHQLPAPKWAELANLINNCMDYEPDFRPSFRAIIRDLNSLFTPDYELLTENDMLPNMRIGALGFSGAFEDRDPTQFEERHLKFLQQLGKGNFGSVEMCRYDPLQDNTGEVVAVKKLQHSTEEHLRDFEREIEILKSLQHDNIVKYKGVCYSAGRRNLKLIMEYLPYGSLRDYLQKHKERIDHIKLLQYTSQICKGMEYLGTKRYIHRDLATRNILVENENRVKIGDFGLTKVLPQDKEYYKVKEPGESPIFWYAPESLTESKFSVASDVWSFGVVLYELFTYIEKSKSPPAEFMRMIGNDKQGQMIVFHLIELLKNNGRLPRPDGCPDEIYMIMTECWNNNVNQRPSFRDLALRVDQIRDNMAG
Chain of Calcium/calmodulin-dependent protein kinase type II subunit alpha (Homo sapiens) (Q9UQM7 whole entry): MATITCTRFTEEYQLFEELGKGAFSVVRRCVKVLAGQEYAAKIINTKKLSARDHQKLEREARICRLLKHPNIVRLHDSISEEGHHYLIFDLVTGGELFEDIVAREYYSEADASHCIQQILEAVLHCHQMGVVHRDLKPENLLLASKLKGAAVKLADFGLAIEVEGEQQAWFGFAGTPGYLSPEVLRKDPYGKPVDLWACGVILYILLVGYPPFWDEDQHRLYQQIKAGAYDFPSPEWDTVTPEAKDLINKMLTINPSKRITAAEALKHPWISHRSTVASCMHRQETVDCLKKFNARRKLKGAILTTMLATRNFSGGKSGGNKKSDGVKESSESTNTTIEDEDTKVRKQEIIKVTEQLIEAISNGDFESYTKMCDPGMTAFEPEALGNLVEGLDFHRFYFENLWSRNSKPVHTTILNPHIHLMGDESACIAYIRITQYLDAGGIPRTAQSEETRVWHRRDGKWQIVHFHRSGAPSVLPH
Chain of Mitogen-activated protein kinase kinase kinase kinase 2 (Homo sapiens) (Q12851 whole entry): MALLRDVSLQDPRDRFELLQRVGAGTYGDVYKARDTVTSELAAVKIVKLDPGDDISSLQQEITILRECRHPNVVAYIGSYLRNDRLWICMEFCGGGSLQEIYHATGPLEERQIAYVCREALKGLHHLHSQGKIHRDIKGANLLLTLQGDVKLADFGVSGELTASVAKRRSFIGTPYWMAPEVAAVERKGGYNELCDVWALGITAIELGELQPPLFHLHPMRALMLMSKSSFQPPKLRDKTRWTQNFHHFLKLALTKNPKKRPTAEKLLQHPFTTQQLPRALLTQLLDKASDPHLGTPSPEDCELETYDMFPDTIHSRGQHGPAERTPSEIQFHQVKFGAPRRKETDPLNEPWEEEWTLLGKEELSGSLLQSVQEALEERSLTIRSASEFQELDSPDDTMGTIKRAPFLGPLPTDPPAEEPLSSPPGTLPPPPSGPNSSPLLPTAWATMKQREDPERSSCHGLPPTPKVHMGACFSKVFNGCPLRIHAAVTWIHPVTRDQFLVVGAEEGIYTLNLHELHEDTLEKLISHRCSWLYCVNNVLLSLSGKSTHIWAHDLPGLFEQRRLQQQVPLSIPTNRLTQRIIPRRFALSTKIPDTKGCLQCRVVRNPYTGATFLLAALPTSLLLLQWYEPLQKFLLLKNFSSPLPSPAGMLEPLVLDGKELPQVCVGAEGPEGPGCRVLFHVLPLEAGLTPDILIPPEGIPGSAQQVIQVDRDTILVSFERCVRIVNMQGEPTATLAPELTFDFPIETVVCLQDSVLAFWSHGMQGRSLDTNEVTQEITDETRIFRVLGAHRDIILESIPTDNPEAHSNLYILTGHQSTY
Chain of Epidermal growth factor receptor (Homo sapiens), P00533 [UNDEFINED MUTATION] (P00533 whole entry, looked up, stated change not applied): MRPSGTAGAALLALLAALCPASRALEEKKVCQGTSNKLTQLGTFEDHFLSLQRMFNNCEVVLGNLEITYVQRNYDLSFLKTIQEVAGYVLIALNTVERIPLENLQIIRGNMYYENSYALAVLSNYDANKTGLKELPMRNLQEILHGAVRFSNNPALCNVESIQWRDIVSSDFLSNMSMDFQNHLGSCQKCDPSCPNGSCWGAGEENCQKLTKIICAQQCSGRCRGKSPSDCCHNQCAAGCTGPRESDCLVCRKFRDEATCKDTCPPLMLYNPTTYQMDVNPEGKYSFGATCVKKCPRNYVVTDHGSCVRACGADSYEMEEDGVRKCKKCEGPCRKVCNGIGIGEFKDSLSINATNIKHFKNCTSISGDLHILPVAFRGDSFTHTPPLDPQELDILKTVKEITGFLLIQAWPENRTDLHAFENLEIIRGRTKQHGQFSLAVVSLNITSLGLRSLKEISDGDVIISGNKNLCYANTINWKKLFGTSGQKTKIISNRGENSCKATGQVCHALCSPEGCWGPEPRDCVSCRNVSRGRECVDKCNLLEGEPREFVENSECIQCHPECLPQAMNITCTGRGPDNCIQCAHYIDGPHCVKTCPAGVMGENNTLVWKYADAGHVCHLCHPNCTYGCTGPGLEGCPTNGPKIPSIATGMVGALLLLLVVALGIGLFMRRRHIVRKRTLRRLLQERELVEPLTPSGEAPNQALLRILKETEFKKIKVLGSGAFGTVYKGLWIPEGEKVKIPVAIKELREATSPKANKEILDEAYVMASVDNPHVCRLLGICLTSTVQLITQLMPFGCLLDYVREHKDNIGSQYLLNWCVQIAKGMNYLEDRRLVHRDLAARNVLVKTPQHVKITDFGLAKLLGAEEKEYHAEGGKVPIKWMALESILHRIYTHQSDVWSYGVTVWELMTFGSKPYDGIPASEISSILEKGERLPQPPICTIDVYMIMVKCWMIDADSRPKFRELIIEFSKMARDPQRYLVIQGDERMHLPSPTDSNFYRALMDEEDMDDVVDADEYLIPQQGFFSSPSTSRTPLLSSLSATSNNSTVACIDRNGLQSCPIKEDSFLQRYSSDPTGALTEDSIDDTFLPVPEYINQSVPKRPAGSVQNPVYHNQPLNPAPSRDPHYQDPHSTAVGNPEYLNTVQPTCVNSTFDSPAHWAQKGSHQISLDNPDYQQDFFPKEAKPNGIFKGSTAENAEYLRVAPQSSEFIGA
Chain of Mitogen-activated protein kinase 9 (Homo sapiens) (P45984 whole entry, looked up): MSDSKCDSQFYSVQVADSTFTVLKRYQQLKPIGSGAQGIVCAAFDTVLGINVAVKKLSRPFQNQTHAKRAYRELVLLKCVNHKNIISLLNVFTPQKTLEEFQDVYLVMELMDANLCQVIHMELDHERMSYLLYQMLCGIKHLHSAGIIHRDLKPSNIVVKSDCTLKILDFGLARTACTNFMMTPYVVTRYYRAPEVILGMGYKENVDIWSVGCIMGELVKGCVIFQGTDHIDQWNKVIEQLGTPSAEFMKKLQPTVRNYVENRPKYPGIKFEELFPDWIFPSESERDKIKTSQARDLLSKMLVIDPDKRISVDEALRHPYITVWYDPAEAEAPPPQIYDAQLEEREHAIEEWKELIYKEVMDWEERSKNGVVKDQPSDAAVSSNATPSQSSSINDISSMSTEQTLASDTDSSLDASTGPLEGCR
Chain of Lymphokine-activated killer T-cell-originated protein kinase (Homo sapiens) (Q96KB5 whole entry): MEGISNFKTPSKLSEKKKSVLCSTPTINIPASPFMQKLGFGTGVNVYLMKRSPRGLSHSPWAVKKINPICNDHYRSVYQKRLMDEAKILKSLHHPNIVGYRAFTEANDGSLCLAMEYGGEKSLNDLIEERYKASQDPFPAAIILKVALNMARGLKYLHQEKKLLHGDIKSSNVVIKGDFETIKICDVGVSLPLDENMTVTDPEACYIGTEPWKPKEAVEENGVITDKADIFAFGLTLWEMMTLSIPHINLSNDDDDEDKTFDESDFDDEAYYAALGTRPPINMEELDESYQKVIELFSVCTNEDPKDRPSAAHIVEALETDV

Compound: COc1cc(N2CCC(N3CCN(C)CC3)CC2)ccc1Nc1ncc(Cl)c(Nc2ccccc2P(C)(C)=O)n1 [BRIGATINIB]
- MSD (NCI-H2228 [1]): 62 days
- inhibition [2]: < 90%
- inhibition [3]: < 90%
- inhibition [4]: < 90%
- IC50 [5]: 154 nM
- inhibition [6]: < 90%
- inhibition [7]: < 90%
- MSD (NCI-H2228 [8]): >64 days
- IC50 [9]: 611 nM
- IC50 [10]: 22 nM
- inhibition [11]: < 90%
- TGI (BaF3): 88%
- inhibition [12]: < 90%
- inhibition [13]: < 90%
- inhibition [14]: < 90%
- IC50 [15]: 329 nM
- inhibition [16]: < 90%
- IC50 [17]: 88 nM
- IC90 [18]: 366 nM
- IC90 [19]: 34 nM
- IC50 (cells): 31 nM
- inhibition [20]: < 90%
- IC90 [21]: 314 nM
- Activity (KARPAS-299): Dose-Dependent Effect
- inhibition [22]: < 90%
- inhibition [23]: < 90%
- inhibition [24]: < 90%
- inhibition [25]: < 90%
- inhibition [26]: < 90%
